Several values for one entry are separate records, joined by “and”; a condition that tells them apart may be missing. Equal entries are not always repeated.
Assay: Plasma pharmacokinetics of BI 187004 after single oral doses (LC–MS/MS)
Conditions: for BI 187004 plasma concentrations: individual subjects
[1] = male, human, plasma, po, 2.5 mg
[2] = male, human, plasma, po, 2.5 mg, Plasma concentration Mean, 2.5 mg single oral
[3] = male, human, plasma, po, 2.5 mg, Plasma concentration Median, 2.5 mg single oral
[4] = male, human, plasma, po, 2.5 mg, Plasma concentration gMean, 2.5 mg single oral

Method: This was a randomized, double-blind, placebo-controlled, single rising dose study conducted at a single center in Germany. […] Follow-up on an ambulatory basis was performed between 11 and 15 days after study drug administration. […] At the time of use the oral solution for dosing was prepared using the PFOS and a co-supplied aqueous solvent containing HP-beta-cyclodextrin 100 mg/mL. The lowest dose level solutions were prepared by further dilution of the lower concentration solution with additional solvent.
For each accepted run, the acceptance criteria for the calibration standards and quality controls were met.

## N#Cc1ccc2c(c1)[C@H]1CCCN(C(=O)c3ccc4[nH]cnc4c3)[C@H]1C2 [BI 187004]
2.5 mg single oral, planned time 0.5 h
  Plasma concentration, individual subjects: BLQ (Below Limit of Quantification (<3.00 nmol/L)) and 5.84 nmol/L and 15.8 nmol/L and 8.84 nmol/L
2.5 mg single oral, planned time 1 h
  Plasma concentration, individual subjects: BLQ (Below Limit of Quantification (<3.00 nmol/L)) and 6.77 nmol/L and 28.4 nmol/L and 17.6 nmol/L and 7.86 nmol/L and 5.64 nmol/L
2.5 mg single oral, planned time 1.5 h
  Plasma concentration, individual subjects: BLQ (Below Limit of Quantification (<3.00 nmol/L)) and 6.06 nmol/L and 17.2 nmol/L and 14.9 nmol/L and 12.1 nmol/L and 5.62 nmol/L
2.5 mg single oral, planned time 2 h
  Plasma concentration, individual subjects: BLQ (Below Limit of Quantification (<3.00 nmol/L)) and 4.97 nmol/L and 13.8 nmol/L and 11.0 nmol/L and 9.41 nmol/L and 4.67 nmol/L
2.5 mg single oral, planned time 2.5 h
  Plasma concentration, individual subjects: BLQ (Below Limit of Quantification (<3.00 nmol/L)) and 4.45 nmol/L and 12.5 nmol/L and 10.1 nmol/L and 8.45 nmol/L
2.5 mg single oral, planned time 3 h
  Plasma concentration, individual subjects: BLQ (Below Limit of Quantification (<3.00 nmol/L)) and 3.48 nmol/L and 11.9 nmol/L and 8.37 nmol/L and 6.66 nmol/L and 3.95 nmol/L
2.5 mg single oral, planned time 4 h
  Plasma concentration, individual subjects: BLQ (Below Limit of Quantification (<3.00 nmol/L)) and 3.40 nmol/L and 10.7 nmol/L and 7.79 nmol/L and 6.03 nmol/L and 4.09 nmol/L
2.5 mg single oral, planned time 5 h
  Plasma concentration, individual subjects: BLQ (Below Limit of Quantification (<3.00 nmol/L)) and 9.77 nmol/L and 7.70 nmol/L and 6.49 nmol/L and 3.91 nmol/L
2.5 mg single oral, planned time 6 h
  Plasma concentration, individual subjects: BLQ (Below Limit of Quantification (<3.00 nmol/L)) and 7.52 nmol/L and 6.22 nmol/L and 5.34 nmol/L and 3.36 nmol/L
2.5 mg single oral, planned time 8 h
  Plasma concentration, individual subjects: BLQ (Below Limit of Quantification (<3.00 nmol/L)) and 6.55 nmol/L and 5.06 nmol/L
2.5 mg single oral, planned time 10 h
  Plasma concentration, individual subjects: BLQ (Below Limit of Quantification (<3.00 nmol/L)) and 5.19 nmol/L and 3.85 nmol/L and 3.08 nmol/L
2.5 mg single oral, planned time 12 h
  Plasma concentration, individual subjects: BLQ (Below Limit of Quantification (<3.00 nmol/L)) and 4.76 nmol/L and 4.10 nmol/L and 3.34 nmol/L
2.5 mg single oral, planned time 24 h
  Plasma concentration, individual subjects: BLQ (Below Limit of Quantification (<3.00 nmol/L)) and 6.66 nmol/L and 5.03 nmol/L and 3.69 nmol/L and 3.73 nmol/L
2.5 mg single oral, planned time 36 h
  Plasma concentration, individual subjects: BLQ (Below Limit of Quantification (<3.00 nmol/L)) and 3.88 nmol/L
2.5 mg single oral, planned time 48 h
  Plasma concentration, individual subjects: BLQ (Below Limit of Quantification (<3.00 nmol/L)) and 5.01 nmol/L and 4.22 nmol/L and 3.14 nmol/L
2.5 mg single oral, planned time 72 h
  Plasma concentration, individual subjects: BLQ (Below Limit of Quantification (<3.00 nmol/L)) and 3.91 nmol/L
2.5 mg single oral, planned time 96 h
  Plasma concentration, individual subjects: BLQ (Below Limit of Quantification (<3.00 nmol/L))
2.5 mg single oral, planned time –0.5 h
  Plasma concentration, individual subjects: BLQ (Below Limit of Quantification (<3.00 nmol/L))
5 mg single oral dose
  CL/F gMean (%gCV): 5.82 (23.0) L/h
5 mg single oral, planned time 0.5 h
  Plasma concentration, individual subjects: 17.6 nM and 16.1 nM
5 mg single oral, planned time 1 h
  Plasma concentration, individual subjects: 139 nM and 113 nM
5 mg single oral, planned time 1.5 h
  Plasma concentration, individual subjects: 137 nM and 105 nM
5 mg single oral, planned time 2 h
  Plasma concentration, individual subjects: 125 nM and 89.1 nM
5 mg single oral, planned time 2.5 h
  Plasma concentration, individual subjects: 113 nM and 99.4 nM
5 mg single oral, planned time 3 h
  Plasma concentration, individual subjects: 104 nM and 89.4 nM
5 mg single oral, planned time 4 h
  Plasma concentration, individual subjects: 97.2 nM and 80.1 nM
5 mg single oral, planned time 5 h
  Plasma concentration, individual subjects: 88.2 nM and 69.3 nM
5 mg single oral, planned time 6 h
  Plasma concentration, individual subjects: 74.1 nM and 59.0 nM and 90.2 nM
5 mg single oral, planned time 8 h
  Plasma concentration, individual subjects: 67.1 nM and 53.5 nM and 81.4 nM
5 mg single oral, planned time 10 h
  Plasma concentration, individual subjects: 63.2 nM and 54.2 nM and 38.5 nM and 58.5 nM
5 mg single oral, planned time 12 h
  Plasma concentration, individual subjects: 54.1 nM and 51.5 nM and 32.5 nM
5 mg single oral, planned time 24 h
  Plasma concentration, individual subjects: 30.9 nM and 21.5 nM
5 mg single oral, planned time 36 h
  Plasma concentration, individual subjects: 19.4 nM and 14.0 nM and 9.68 nM
5 mg single oral, planned time 48 h
  Plasma concentration, individual subjects: 20.9 nM and 11.6 nM and 10.6 nM
5 mg single oral, planned time 72 h
  Plasma concentration, individual subjects: 12.4 nM and 5.72 nM and 5.44 nM
5 mg single oral, planned time 96 h
  Plasma concentration, individual subjects: 7.71 nM and 4.37 nM and 3.26 nM
5 mg single oral, planned time –0.5 h
  Plasma concentration, individual subjects: BLQ (Below Limit of Quantification (<3.00 nmol/L))
10 mg single oral dose
  CL/F gMean (%gCV): 4.93 (29.2) L/h
10 mg single oral, planned time –0.5 h
  Plasma concentration, individual subjects: BLQ (Below Limit of Quantification (<3.00 nmol/L))
20 mg single oral dose
  CL/F gMean (%gCV): 4.70 (41.2) L/h
20 mg single oral, planned time 72 h
  BI 187004 plasma concentrations: BLQ (Below Limit of Quantification (<3.00 nmol/L))
20 mg single oral, planned time 96 h
  BI 187004 plasma concentrations: BLQ (Below Limit of Quantification (<3.00 nmol/L))
20 mg single oral, planned time –0.5 h
  BI 187004 plasma concentrations: BLQ (Below Limit of Quantification (<3.00 nmol/L))
40 mg single oral dose
  CL/F gMean (%gCV): 4.50 (36.1) L/h
40 mg single oral, planned time –0.5 h
  BI 187004 plasma concentrations: BLQ (Below Limit of Quantification (<3.00 nmol/L))
80 mg single oral dose
  CL/F gMean (%gCV): 4.56 (40.2) L/h
80 mg single oral, planned time –0.5 h
  BI 187004 plasma concentrations: BLQ (Below Limit of Quantification (<3.00 nmol/L))
160 mg single oral dose
  CL/F gMean (%gCV): 4.21 (19.5) L/h
160 mg single oral, planned time 96 h
  BI 187004 plasma concentrations: BLQ (Below Limit of Quantification (<3.00 nmol/L))
160 mg single oral, planned time –0.5 h
  BI 187004 plasma concentrations: BLQ (Below Limit of Quantification (<3.00 nmol/L))
240 mg
  Time to Cmax, single subject (subject 64): 24 h
240 mg single oral dose
  CL/F gMean (%gCV): 6.44 (53.4) L/h
240 mg single oral, planned time -0.5 h
  BI 187004 plasma concentrations: BLQ (Below Limit of Quantification (<3.00 nmol/L))
360 mg single oral dose
  CL/F gMean (%gCV): 5.48 (25.4) L/h
360 mg single oral, planned time –0.5 h
  BI 187004 plasma concentrations: BLQ (Below Limit of Quantification (<3.00 nmol/L))
5–360 mg
  Apparent clearance (CL/F), range across dose groups: 4.21—6.44 L/h
male, human, in vivo, po, 240 mg
  concentration at 96 h: 18.4 nM
male, human, plasma, oral
  Vd/F: 87.9 to 281 L
male, human, plasma, oral, 10 mg, Plasma C10 gMean (range), 10 mg single dose
  concentration at 10 h: 174 nM
male, human, plasma, oral, 10 mg, Plasma C24 gMean (range), 10 mg single dose, 24 h
  concentration at 24 h: 71.3 nM
male, human, plasma, oral, 20 mg, Plasma C10 gMean (range), 20 mg single dose
  concentration at 10 h: 382 nM
male, human, plasma, oral, 20 mg, Plasma C24 gMean (range), 20 mg single dose, 24 h
  concentration at 24 h: 161 nM
male, human, plasma, oral, 40 mg, Plasma C10 gMean (range), 40 mg single dose
  concentration at 10 h: 796 nM
male, human, plasma, oral, 40 mg, Plasma C24 gMean (range), 40 mg single dose, 24 h
  concentration at 24 h: 321 nM
male, human, plasma, oral, 80 mg, Plasma C10 gMean (range), 80 mg single dose
  concentration at 10 h: 1530 nM
male, human, plasma, oral, 80 mg, Plasma C24 gMean (range), 80 mg single dose, 24 h
  concentration at 24 h: 878 nM
male, human, plasma, oral, 160 mg, Plasma C10 gMean (range), 160 mg single dose
  concentration at 10 h: 3000 nM
male, human, plasma, oral, 160 mg, Plasma C24 gMean (range), 160 mg single dose, 24 h
  concentration at 24 h: 1630 nM
male, human, plasma, oral, 240 mg, Plasma C10 gMean (range), 240 mg single dose
  concentration at 10 h: 2600 nM
male, human, plasma, oral, 240 mg, Plasma C24 gMean (range), 240 mg single dose, 24 h
  concentration at 24 h: 2130 nM
male, human, plasma, oral, 360 mg, Plasma C10 gMean (range), 360 mg single dose
  concentration at 10 h: 5300 nM
male, human, plasma, oral, 360 mg, Plasma C24 gMean (range), 360 mg single dose, 24 h
  concentration at 24 h: 2690 nM
male, human, plasma, po
  Tmax: 1 to 1.5 h
[1]
  AUC(0-t): 0.212 µM·h
  Cmax: 11.8 nM
  Tmax: 1 h
male, human, plasma, po, 2.5 mg, C24 gMean (%gCV), 2.5 mg single oral dose
  concentration at 24 h: 4.54 nM
[2]
  concentration at 1 h: 13.3 nM
  concentration at 1.5 h: 11.2 nM
  concentration at 2 h: 8.77 nM
  concentration at 2.5 h: 7.99 nM
  concentration at 3 h: 6.87 nM
  concentration at 4 h: 6.4 nM
  concentration at 5 h: 6.97 nM
  concentration at 6 h: 5.61 nM
  concentration at 10 h: 4.53 nM
  concentration at 12 h: 4.66 nM
  concentration at 48 h: 3.99 nM
male, human, plasma, po, 2.5 mg, Plasma concentration Mean, 2.5 mg single oral, 24 h
  concentration at 24 h: 4.66 nM
[3]
  concentration at 1 h: 7.86 nM
  concentration at 1.5 h: 12.1 nM
  concentration at 2 h: 9.41 nM
  concentration at 2.5 h: 8.45 nM
  concentration at 3 h: 6.66 nM
  concentration at 4 h: 6.03 nM
  concentration at 5 h: 7.1 nM
  concentration at 6 h: 5.78 nM
  concentration at 10 h: 4.52 nM
  concentration at 12 h: 4.43 nM
  concentration at 48 h: 3.9 nM
male, human, plasma, po, 2.5 mg, Plasma concentration Median, 2.5 mg single oral, 24 h
  concentration at 24 h: 4.19 nM
[4]
  concentration at 1 h: 10.8 nM
  concentration at 1.5 h: 10.1 nM
  concentration at 2 h: 8.02 nM
